Test results: ChEMBL document CHEMBL1134476, “Pharmacological and behavioral analysis of the effects of some bivalent ligand-based monoamine reuptake inhibitors” (J Med Chem, 2001)

How the values were obtained:
Type in all cases: subcellular, Brain
[1] = biological target: T1, Sodium-dependent dopamine transporter (Rattus norvegicus, UniProt P23977); test: Displacement of [3H]mazindol binding to dopamine transporter (DAT) in rat synaptosomes
[2] = biological target: T1, Sodium-dependent dopamine transporter; test: Inhibition of high affinity DA uptake into rat synaptosomes using [3H]DA
[3] = biological target: T2, Norepinephrine transporter (Rattus norvegicus, UniProt Q9WTR4); test: Ability to inhibit high affinity uptake of norepinephrine transporter into the nerve endings of rat synaptosomes using [3H]NE as a radioligand
[4] = biological target: Sodium-dependent serotonin transporter (Rattus norvegicus, UniProt P31652); test: Inhibition of high affinity serotonin uptake into rat synaptosomes using [3H]5-HT
[5] = biological target: T2, Norepinephrine transporter; test: Ability to inhibit high affinity uptake of norepinephrine transporter into the nerve endings of rat synaptosomes using [3H]NE radioligand
[6] = biological target: T1, Sodium-dependent dopamine transporter; test: Ability to inhibit high affinity uptake of DA into the nerve endings of rat synaptosomes using [3H]DA as a radioligand

T1 sequence (P23977 whole entry): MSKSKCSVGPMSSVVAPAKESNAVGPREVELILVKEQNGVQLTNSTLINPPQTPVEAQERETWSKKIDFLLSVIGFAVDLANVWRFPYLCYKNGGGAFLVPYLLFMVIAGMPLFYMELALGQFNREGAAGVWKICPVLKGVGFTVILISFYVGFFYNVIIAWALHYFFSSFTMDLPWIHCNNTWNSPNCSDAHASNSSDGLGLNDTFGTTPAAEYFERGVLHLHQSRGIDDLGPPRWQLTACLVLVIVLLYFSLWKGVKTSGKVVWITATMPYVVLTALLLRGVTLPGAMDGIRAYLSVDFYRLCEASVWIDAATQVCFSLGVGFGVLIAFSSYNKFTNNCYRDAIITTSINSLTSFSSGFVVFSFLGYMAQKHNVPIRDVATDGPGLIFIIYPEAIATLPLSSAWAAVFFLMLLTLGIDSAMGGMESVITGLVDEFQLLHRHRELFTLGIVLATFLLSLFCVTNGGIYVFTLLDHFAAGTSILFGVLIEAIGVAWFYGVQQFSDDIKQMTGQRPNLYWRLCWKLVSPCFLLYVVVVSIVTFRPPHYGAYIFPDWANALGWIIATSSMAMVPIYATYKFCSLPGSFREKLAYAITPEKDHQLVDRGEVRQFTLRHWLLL
T2 sequence (Q9WTR4 whole entry): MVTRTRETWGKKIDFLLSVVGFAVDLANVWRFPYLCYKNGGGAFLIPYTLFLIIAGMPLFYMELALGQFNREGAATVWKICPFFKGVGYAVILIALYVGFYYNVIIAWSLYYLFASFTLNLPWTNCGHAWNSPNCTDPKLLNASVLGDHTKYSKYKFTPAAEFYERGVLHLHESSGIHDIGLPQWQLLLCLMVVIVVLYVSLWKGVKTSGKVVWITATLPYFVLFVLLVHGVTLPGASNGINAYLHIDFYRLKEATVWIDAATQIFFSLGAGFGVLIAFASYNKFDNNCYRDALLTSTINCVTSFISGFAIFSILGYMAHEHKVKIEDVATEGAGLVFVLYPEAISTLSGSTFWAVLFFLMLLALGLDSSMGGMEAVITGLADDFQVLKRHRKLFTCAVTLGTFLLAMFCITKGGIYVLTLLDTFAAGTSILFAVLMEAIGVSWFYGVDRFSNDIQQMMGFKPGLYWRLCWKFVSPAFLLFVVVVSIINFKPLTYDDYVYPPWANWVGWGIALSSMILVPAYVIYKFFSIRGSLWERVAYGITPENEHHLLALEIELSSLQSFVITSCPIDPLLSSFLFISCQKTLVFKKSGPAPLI
Sodium-dependent serotonin transporter, sequence (P31652 whole entry): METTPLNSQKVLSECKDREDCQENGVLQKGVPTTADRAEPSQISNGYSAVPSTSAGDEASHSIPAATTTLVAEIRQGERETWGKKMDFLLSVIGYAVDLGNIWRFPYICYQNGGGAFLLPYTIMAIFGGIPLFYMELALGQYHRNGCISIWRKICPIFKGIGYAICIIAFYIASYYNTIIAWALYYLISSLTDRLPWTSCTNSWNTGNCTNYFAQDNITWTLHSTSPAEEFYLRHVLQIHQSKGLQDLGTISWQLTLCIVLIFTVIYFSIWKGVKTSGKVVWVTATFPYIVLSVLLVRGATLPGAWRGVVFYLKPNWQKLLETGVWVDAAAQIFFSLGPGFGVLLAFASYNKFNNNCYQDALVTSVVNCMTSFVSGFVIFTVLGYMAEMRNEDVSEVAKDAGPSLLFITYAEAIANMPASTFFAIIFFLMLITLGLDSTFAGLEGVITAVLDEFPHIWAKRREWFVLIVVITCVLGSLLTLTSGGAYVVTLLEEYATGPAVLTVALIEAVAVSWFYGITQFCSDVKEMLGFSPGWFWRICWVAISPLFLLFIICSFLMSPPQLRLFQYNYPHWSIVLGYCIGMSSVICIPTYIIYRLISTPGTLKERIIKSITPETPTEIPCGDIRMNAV

Row | SMILES | Ki [1] | Ki [2] | Ki [3] | Ki [4] | Ki [5] | Ki [6]
1 | CN1CC[C@H](c2ccc(Cl)cc2)[C@@H](C(=O)OCCCCCCCCOC(=O)[C@H]2CN(C)CC[C@@H]2c2ccc(Cl)cc2)C1 | 920 nM | 142 nM | 658 nM | 175 nM |  | 
2 | CN1CC[C@H](c2ccc(Cl)cc2)[C@@H](C(=O)OCCCCCOC(=O)[C@H]2CN(C)CC[C@@H]2c2ccc(Cl)cc2)C1 | 64 nM | 56 nM | 182 nM | 25 nM |  | 
3 | CNC(=O)[C@@H]1CN(C)CC[C@H]1c1ccc(Cl)cc1 | > 39000 nM | > 70000 nM |  | > 10000 nM | 3110 nM | 
4 | CN1CC[C@@H](c2ccc(Cl)cc2)[C@H](C(=O)NCCCCCCCCNC(=O)[C@@H]2CN(C)CC[C@H]2c2ccc(Cl)cc2)C1 |  |  | 1040 nM | 2.1 nM |  | 3180 nM
5 | COC(=O)[C@@H]1CN(C)CC[C@H]1c1ccc(Cl)cc1 | 1770 nM | 2890 nM |  | 3600 nM | 242 nM | 
6 | CN1CC[C@H](c2ccc(Cl)cc2)[C@@H](C(=O)NCCCCCNC(=O)[C@H]2CN(C)CC[C@@H]2c2ccc(Cl)cc2)C1 | 103 nM | 39 nM | 158 nM | 7 nM |  | 
7 | CN1CC[C@H](c2ccc(Cl)cc2)[C@@H](C(=O)NCCCCCCNC(=O)[C@H]2CN(C)CC[C@@H]2c2ccc(Cl)cc2)C1 | 402 nM | 75 nM | 579 nM | 60 nM |  | 
8 | COC(=O)[C@H]1CN(C)CC[C@@H]1c1ccc(Cl)cc1 | 248 nM | 228 nM |  | 5880 nM | 90 nM | 
9 | CN1CC[C@H](c2ccc(Cl)cc2)[C@@H](C(=O)NCCCCNC(=O)[C@H]2CN(C)CC[C@@H]2c2ccc(Cl)cc2)C1 | 81 nM | 33 nM | 104 nM | 534 nM |  | 
10 | CN1CC[C@H](c2ccc(Cl)cc2)[C@@H](C(=O)NCCCNC(=O)[C@H]2CN(C)CC[C@@H]2c2ccc(Cl)cc2)C1 | 8.4 nM | 14 nM | 146 nM | 566 nM |  | 
11 | CNC(=O)[C@H]1CN(C)CC[C@@H]1c1ccc(Cl)cc1 | > 12000 nM | > 9000 nM | 4380 nM | > 53000 nM |  | 
12 | CN1CC[C@@H](c2ccc(Cl)cc2)[C@H](C(=O)NCCCCCNC(=O)[C@@H]2CN(C)CC[C@H]2c2ccc(Cl)cc2)C1 | 1440 nM |  | 393 nM |  |  | 
13 | CN1CC[C@H](c2ccc(Cl)cc2)[C@@H](C(=O)NCCCCCNC(=O)/C=C/c2ccc(Cl)cc2)C1 | 246 nM | 253 nM | 1080 nM | 133 nM |  | 
14 | CN1CC[C@@H](c2ccc(Cl)cc2)[C@H](C(=O)NCCCNC(=O)[C@@H]2CN(C)CC[C@H]2c2ccc(Cl)cc2)C1 | > 6500 nM | 5090 nM | 373 nM | 342 nM |  | 
15 | CN1CC[C@H](c2ccc(Cl)cc2)[C@@H](C(=O)NCCCCCNC(=O)c2ccccc2)C1 | 409 nM | 465 nM | 1200 nM | 494 nM |  | 
16 | CN1CC[C@H](c2ccc(Cl)cc2)[C@@H](C(=O)NCCCCCCCCNC(=O)[C@H]2CN(C)CC[C@@H]2c2ccc(Cl)cc2)C1 | 294 nM | 341 nM | 1980 nM | 56 nM |  | 
17 | CN1CC[C@H](c2ccc(Cl)cc2)[C@@H](C(=O)NCCCCCNC(=O)c2ccc(Cl)cc2)C1 | 194 nM | 256 nM | 551 nM | 159 nM |  | 
18 | CN1CC[C@H](c2ccc(Cl)cc2)[C@@H](C(=O)NCCCCCCCNC(=O)[C@H]2CN(C)CC[C@@H]2c2ccc(Cl)cc2)C1 | 348 nM | 190 nM | 394 nM | 40 nM |  | 
19 | CN1CC[C@H](c2ccc(Cl)cc2)[C@@H](C(=O)OCCCOC(=O)[C@H]2CN(C)CC[C@@H]2c2ccc(Cl)cc2)C1 | 68 nM | 108 nM | 340 nM | 730 nM |  | 
